Patent US20250040539A1, “COMPOSITION COMPRISING AN ANTIMICROBIAL AGENT AND A CARBOXAMIDE” (BASF SE, priority 2021, published 2025)

System: bacterial mix: Escherichia coli DSM 1576, Alcaligenes faecalis DSM 13644, Pseudomonas aeuginosa ATCC 15442, Staphylococcus aureus ATCC 6538, Burkholderia …
Assay: Preservative activity of a basic composition (10% PG in water, pH 7) with 2-phenoxyethanol against bacterial contamination (Example 2.1)
Format: cell-based
Settings: 10% PG + 0.36% PE + 0.04% amide
Description: An aqueous composition of pH 7 comprising 10% by weight of propyleneglycol (PG) as organic solvent, 0.36% by weight of 2-phenoxyethanol (PE) as antimicrobial and 0.04% by weight of the amide listed in the below table was tested for its preserving activity against bacterial contamination (the weight percentages relate to the total weight of the composition). For this purpose, the samples were contaminated with a bacterial mix consisting of: • Escherichia coli DSM 1576 • Alcaligenes faecalis DSM 13644 • Pseudomonas aeuginosa ATCC 15442 • Staphylococcus aureus ATCC 6538 • Burkholderia cepacia DSM 7288 • Pseudomonas putida DSM 12735
The samples were inoculated with the bacterial mix at day 0, 7 and 14 to obtain 10E+06 to 10E+07 CFU/ml inoculation in the test samples (compositions listed in the below table) consisting of 10% by weight of propylene glycol in water and stored at 25° C. for 21 days.
CFU was determined before re-inoculation at days 7 and 14, and on day 21.

CCCCCCCCCC(=O)N(C)C [n-Decanoyl-N,N-dimethylamide]
<10 CFU/ml: d7 [CFU/ml] (day 7) | d14 [CFU/ml] (day 14) | d21 [CFU/ml] (day 21)
